Active and inactive are the calls of the source. The rule behind the calls is not given here.
Key:
[1] = tested on: Rattus norvegicus; test: Cardiotoxicity in Wistar rat assessed as effect on PQ interval time at 5 mg/kg, iv measured after 15 mins (reference value: 52 to 57 ms); format: toxicity, organism-based; conditions: in vivo, 0.25 h
[2] = tested on: Rattus norvegicus; test: Cardiotoxicity in Wistar rat assessed as effect on heart rate at 5 mg/kg, iv measured after 5 mins (reference value: 323 to 374.5 bpm); format: toxicity, organism-based; conditions: in vivo
[3] = biological target: Adrenergic receptor alpha-2 (Rattus norvegicus) (UniProt P22086+P19328+P22909); test: Displacement of [3H]-clonidine from adrenergic alpha2 receptor in Wistar rat cortex at 10^-5 M incubated for 25 mins by microbeta liquid scintillation counting analysis
[4] = tested on: Rattus norvegicus; test: Cardiotoxicity in Wistar rat assessed as effect on QT interval time at 5 mg/kg, iv measured after 5 mins (reference value: 57.7 to 61 ms); format: toxicity, organism-based; conditions: in vivo
[5] = tested on: Rattus norvegicus; test: Hypotensive activity in normotensive Wistar rat assessed as systolic blood pressure at 5 mg/kg, iv measured after 10 mins (reference value: 119.2 to 148.6 mmHg); format: functional
[6] = tested on: Rattus norvegicus; test: Hypotensive activity in normotensive Wistar rat assessed as diastolic blood pressure at 5 mg/kg, iv measured after 60 mins (reference value: 86.5 to 119.4 mmHg); format: functional
[7] = tested on: Rattus norvegicus; test: Cardiotoxicity in Wistar rat assessed as effect on QRS interval time at 5 mg/kg, iv measured after 5 mins (reference value: 16.7 to 20.7 ms); format: toxicity, organism-based; conditions: in vivo
[8] = tested on: Rattus norvegicus; test: Hypotensive activity in normotensive Wistar rat assessed as diastolic blood pressure at 5 mg/kg, iv measured after 20 mins (reference value: 86.5 to 119.4 mmHg); format: functional
[9] = tested on: Rattus norvegicus; test: Cardiotoxicity in Wistar rat assessed as effect on PQ interval time at 5 mg/kg, iv measured after 5 mins (reference value: 52 to 57 ms); format: toxicity, organism-based; conditions: in vivo
[10] = tested on: Rattus norvegicus; test: Cardiotoxicity in Wistar rat assessed as effect on PQ interval time at 5 mg/kg, iv measured after 1 min (reference value: 52 to 57 ms); format: toxicity, organism-based; conditions: in vivo
[11] = tested on: Rattus norvegicus; test: Hypotensive activity in normotensive Wistar rat assessed as systolic blood pressure at 5 mg/kg, iv measured after 5 mins (reference value: 119.2 to 148.6 mmHg); format: functional
[12] = tested on: Rattus norvegicus; test: Hypotensive activity in normotensive Wistar rat assessed as diastolic blood pressure at 5 mg/kg, iv measured after 10 mins (reference value: 86.5 to 119.4 mmHg); format: functional
[13] = tested on: Rattus norvegicus; test: Cardiotoxicity in Wistar rat assessed as effect on heart rate at 5 mg/kg, iv measured after 1 min (reference value: 323 to 374.5 bpm); format: toxicity, organism-based; conditions: in vivo
[14] = biological target: T1, Adrenergic receptor alpha-1 (Rattus norvegicus, UniProt P15823+P23944+P43140); test: Displacement of [3H][…]prazosin from adrenergic alpha1 receptor in Wistar rat cortex incubated for 30 mins by microbeta liquid scintillation counting analysis
T1 sequence (P15823 whole entry): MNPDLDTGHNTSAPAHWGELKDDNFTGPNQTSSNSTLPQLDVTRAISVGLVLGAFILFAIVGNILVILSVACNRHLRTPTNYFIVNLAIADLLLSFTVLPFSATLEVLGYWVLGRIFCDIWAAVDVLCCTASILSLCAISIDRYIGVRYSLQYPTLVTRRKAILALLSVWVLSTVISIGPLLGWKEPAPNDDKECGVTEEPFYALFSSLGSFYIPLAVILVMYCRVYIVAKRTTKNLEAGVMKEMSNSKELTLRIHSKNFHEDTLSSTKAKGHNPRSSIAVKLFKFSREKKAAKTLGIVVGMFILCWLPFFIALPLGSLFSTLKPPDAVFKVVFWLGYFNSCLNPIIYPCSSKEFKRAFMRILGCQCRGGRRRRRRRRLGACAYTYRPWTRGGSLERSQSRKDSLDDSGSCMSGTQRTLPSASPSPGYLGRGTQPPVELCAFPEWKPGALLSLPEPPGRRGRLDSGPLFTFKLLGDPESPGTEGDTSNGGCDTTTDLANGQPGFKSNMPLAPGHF
T1 sequence (P23944 whole entry): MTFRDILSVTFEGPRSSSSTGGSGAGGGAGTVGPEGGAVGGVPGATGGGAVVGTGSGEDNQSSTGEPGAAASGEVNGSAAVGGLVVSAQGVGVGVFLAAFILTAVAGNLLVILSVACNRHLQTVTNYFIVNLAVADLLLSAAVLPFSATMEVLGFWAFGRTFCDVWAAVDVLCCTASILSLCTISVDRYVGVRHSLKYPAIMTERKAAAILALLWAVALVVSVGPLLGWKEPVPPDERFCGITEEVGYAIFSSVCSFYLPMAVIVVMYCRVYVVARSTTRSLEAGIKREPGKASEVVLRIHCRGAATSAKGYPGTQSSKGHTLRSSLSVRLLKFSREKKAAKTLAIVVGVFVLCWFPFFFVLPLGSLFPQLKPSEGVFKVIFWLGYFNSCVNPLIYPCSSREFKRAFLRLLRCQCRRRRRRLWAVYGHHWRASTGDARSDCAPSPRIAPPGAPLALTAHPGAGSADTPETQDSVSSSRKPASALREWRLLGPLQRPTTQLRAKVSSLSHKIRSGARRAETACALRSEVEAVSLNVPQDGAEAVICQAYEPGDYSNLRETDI
T1 sequence (P43140 whole entry): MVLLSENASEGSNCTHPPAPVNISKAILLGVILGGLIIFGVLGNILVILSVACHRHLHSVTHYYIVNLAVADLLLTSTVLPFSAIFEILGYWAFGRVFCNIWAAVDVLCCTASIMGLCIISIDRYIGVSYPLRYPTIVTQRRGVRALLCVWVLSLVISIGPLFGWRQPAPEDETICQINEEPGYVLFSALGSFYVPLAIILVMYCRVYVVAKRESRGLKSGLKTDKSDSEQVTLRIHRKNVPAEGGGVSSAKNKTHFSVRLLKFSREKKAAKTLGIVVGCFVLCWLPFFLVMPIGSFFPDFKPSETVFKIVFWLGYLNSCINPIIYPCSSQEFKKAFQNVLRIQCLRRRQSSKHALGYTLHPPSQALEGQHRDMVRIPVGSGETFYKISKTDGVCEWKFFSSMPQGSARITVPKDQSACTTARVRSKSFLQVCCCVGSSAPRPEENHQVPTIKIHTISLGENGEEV

[15] = tested on: Rattus norvegicus; test: Cardiotoxicity in Wistar rat assessed as effect on QT interval time at 5 mg/kg, iv measured after 1 min (reference value: 57.7 to 61 ms); format: toxicity, organism-based; conditions: in vivo
[16] = tested on: Rattus norvegicus; test: Cardiotoxicity in Wistar rat assessed as effect on QTC interval time at 5 mg/kg, iv measured after 1 min (reference value: 136.7 to 146.2 ms); format: toxicity, organism-based; conditions: in vivo
[17] = biological target: Beta-1 adrenergic receptor (Rattus norvegicus, UniProt P18090); test: Displacement of [3H]-CGP-12177 from adrenergic beta1 receptor in Wistar rat cortex incubated for 60 mins by microbeta liquid scintillation counting analysis
[18] = tested on: Rattus norvegicus; test: Cardiotoxicity in Wistar rat assessed as effect on QTC interval time at 5 mg/kg, iv measured after 5 mins (reference value: 136.7 to 146.2 ms); format: toxicity, organism-based; conditions: in vivo
[19] = tested on: Blood; test: Anti-aggregative activity in Wistar rat whole blood assessed as inhibition of collagen-induced aggregation preincubated for 3 mins followed by collagen induction measured for 6 mins; format: functional, tissue-based

Sequence of Beta-1 adrenergic receptor (P18090 whole entry): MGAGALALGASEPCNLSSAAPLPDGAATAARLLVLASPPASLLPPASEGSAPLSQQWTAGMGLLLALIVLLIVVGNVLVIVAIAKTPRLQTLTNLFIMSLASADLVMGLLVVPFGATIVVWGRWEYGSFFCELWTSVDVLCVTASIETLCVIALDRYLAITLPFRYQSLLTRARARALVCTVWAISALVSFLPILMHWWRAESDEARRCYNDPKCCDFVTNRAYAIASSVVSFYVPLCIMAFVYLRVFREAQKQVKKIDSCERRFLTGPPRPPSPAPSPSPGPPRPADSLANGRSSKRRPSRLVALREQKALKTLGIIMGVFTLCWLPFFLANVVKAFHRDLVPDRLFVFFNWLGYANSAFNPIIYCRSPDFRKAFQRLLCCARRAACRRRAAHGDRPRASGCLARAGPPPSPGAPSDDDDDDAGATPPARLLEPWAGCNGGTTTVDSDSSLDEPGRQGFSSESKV

Row | Compound | Time [1] [ms] | Activity [2] [bpm] | Activity [3] | Time [4] [ms] | Activity [5] [mmHg] | Activity [6] [mmHg] | Time [7] [ms] | Activity [8] [mmHg] | Time [9] [ms] | Time [10] [ms] | Activity [11] [mmHg] | Activity [12] [mmHg] | Activity [13] [bpm] | IC50 [14] [nM] | Time [15] [ms] | Time [16] [ms] | Ki [17] [nM] | Time [18] [ms] | IC50 [19] [nM] | inhibition [19] | also measured
1 | Cl.O=c1c2ccccc2oc2cc(OCC(O)CN3CCN(c4ccccn4)CC3)ccc12 (racemic) | 56 | 313 | inactive | 58.3 | 110.3 | 74.7 | 20 | 80.3 | 54.7 | 55.3 | 114.7 | 80.5 | 340.7 | 355.6 | 59 | 140.2 | 1570 | 133.3 | 77000 | Dose-dependent effect | –
2 | COc1ccccc1OCCNCC(O)COc1cccc2c(=O)c3ccccc3oc12.Cl (racemic) | 57.3 | 296 | inactive | 67.3 | 106.5 | 80 | 19.3 | 71.5 | 58 | 56 | 121.6 | 73 | 307 | 109.5 | 70 | 157.2 | 852 | 148.3 | 49500 | Dose-dependent effect | Ki [14]: 875.5 nM; IC50 [17]: 178 nM
3 | COc1ccccc1CNCC(O)COc1cccc2c(=O)c3ccccc3oc12.Cl (racemic) | 57.7 | 243.7 | inactive | 64.7 | 147.7 | 94.3 | 22.7 | 100.6 | 63.3 | 60.7 | 149.3 | 107 | 246 | 1870 | 65.5 | 151.4 | 10.8 | 129.8 | 86800 | Dose-dependent effect | IC50 [17]: 179 nM
4 | COc1ccc(CCNCC(O)COc2cccc3c(=O)c4ccccc4oc23)cc1OC.Cl (racemic) | 59.3 | 254.7 | inactive | 66.7 | 135.6 | 98.6 | 22.7 | 97.4 | 58 | 62.7 | 135.4 | 105 | 262.7 | – | 61.3 | 128.1 | 357 | 138.4 | – | – | Ki [14]: 274 nM; IC50 [17]: 106 nM
5 | CC(C)(C)NCC(O)COc1cccc2c(=O)c3ccccc3oc12.Cl (racemic) | – | – | inactive | – | – | – | – | – | – | – | – | – | – | – | – | – | 5.4 | – | 33000 | Dose-dependent effect | Ki [14]: 814 nM
6 | COc1ccccc1CCNCC(O)COc1cccc2c(=O)c3ccccc3oc12.Cl (racemic) | 51 | 336 | inactive | 61 | 133.4 | 89.6 | 19 | 98.8 | 52.5 | 52 | 146.2 | 101.8 | 356 | 349.8 | 60.5 | 149.3 | 359 | 148.2 | 33400 | Dose-dependent effect | Ki [14]: 4676 nM; IC50 [17]: 426 nM

— ChEMBL document CHEMBL4118148, “Design, synthesis and cardiovascular evaluation of some aminoisopropanoloxy derivatives of xanthone” (Bioorg Med Chem, 2018)
